Consider one compound from article PMC4790305, “An FDA-Drug Library Screen for Compounds with Bioactivities against Meticillin-Resistant Staphylococcus aureus (MRSA)” (Antibiotics, 2015).

SMILES strings stand for the structures. In brackets after ≈: the same amount, converted by molar mass.

The conditions of data set [1]: cited from earlier work.
In data set [2] the test system is MRSA USA400 (ATCC-BAA-1707). Put plainly: Minimum inhibitory concentration (MIC) assay, MRSA USA 400. It counts as cell-based, meticillin-resistant Staphylococcus aureus. Conditions: Staphylococcus aureus; microdilution, overnight 35 °C; read-out: MRSA MICs USA 400. The source says: (§1) The 1163 FDA-approved drugs were purchased as a library set from Selleckchem (catalog #L1300). For MIC assays, Ivacaftor, Mupirocin and Tigecycline were purchased from Santa Cruz Biotechnology (Dallas, TX, USA). All other test compounds were purchased from Sigma-Aldrich (St. Louis, MO, USA) and were used without further purification. MRSA strains USA 100 (ATCCBAA-1681), USA 300 (ATCC-BAA-1680), USA400 (ATCC-BAA-1707) and VISA (ATCC-700699) were purchased from ATCC (Manassas, VA, USA).
(§2) The MICs of antibiotics and peptides were determined using the microdilution method from the Clinical and Laboratory Standards Institute (CLSI) guidelines. Briefly, bacteria were grown fresh from frozen stock in MH2 agar at 37 °C. After an overnight incubation, five MRSA colonies were selected to grow in cation-adjusted MH2 broth (BD Biosciences catalog #212322) in a shaker incubator at 37 °C, 220 RPM. Cells were grown to an optical density (OD600) of 0.15–0.16 using a Microplate Spectrophotometer (Molecular Devices Spectra Max Plus), which corresponds to 1–2 × 10^8 CFU/mL. Test compounds were constituted into 4 mM DMSO stock solutions and then subjected to two-fold serial dilution in a 96-well plate with concentrations ranging from 100 to 0.2 μM in duplicates. The amount of 50 μL of microbial culture containing ~1–2 × 10^6 CFU/mL of microbes in the respective broths was introduced into each well containing 50 μL of compound. After an overnight incubation at 35 °C, OD600 measurements were conducted using the Microplate Spectrophotometer. The MIC was defined as the lowest drug concentration (μM) required to inhibit microbial growth.
A general note: Dilution methods test growth across graded concentrations, often in twofold steps.

Data set [3] concerns panel of clinical MRSA strains (USA 100, USA 300, USA 400 and VISA). The data set can be described thus: MIC assay against panel of clinical MRSA strains. Conditions: Staphylococcus aureus; across USA 100, USA 300, USA 400 and VISA. The class given is cell-based, meticillin-resistant Staphylococcus aureus.
Text: as §1, §2

Data set [4] concerns VISA (ATCC-700699). The data set can be described thus: Minimum inhibitory concentration (MIC) assay, VISA. The class given is cell-based, meticillin-resistant Staphylococcus aureus. Conditions: Staphylococcus aureus, ATCC 700699 / MRSA / VISA; microdilution, overnight 35 °C; read-out: MRSA MICs VISA.
Text: as §1, §2

The test system of data set [5] is MRSA USA100. Put plainly: Single-point 10 μM bacteria growth inhibition assay. It counts as cell-based, meticillin-resistant Staphylococcus aureus. Conditions: MRSA USA 100.
Text: as §1
MRSA USA100 was grown from frozen glycerol stock on Mueller Hinton 2 (MH2) agar overnight at 37 °C. Five colonies were selected from the agar plate and grown in cation-adjusted MH2 broth (BD Biosciences catalog #212322, Franklin Lakes, NJ, USA) in a shaker incubator at 37 °C, 220 RPM. Cells were grown to 1–2 × 10^8 CFU/mL and diluted 1:100 in MH2 broth. An amount of 50 μL of test compounds pre-dissolved in MH2 broth at 20 μM concentrations were added in duplicates into each well in a 96-well plate. A total of 50 μL of bacteria inoculums containing ~1 × 10^6 CFU/mL of bacteria in MH2 broth was introduced into each well containing the test compounds. The final DMSO concentration was kept at 2.5% in each well. After an overnight incubation at 35 °C, optical density (OD600) of each well was determined using the Microplate Spectrophotometer (Molecular Devices Spectra Max Plus, Sunnyvale, CA, USA).

In data set [6] the test system is MRSA USA 100 (ATCCBAA-1681). The data set can be described thus: Minimum inhibitory concentration (MIC) assay, MRSA USA 100. It counts as cell-based, meticillin-resistant Staphylococcus aureus. Conditions: Staphylococcus aureus; microdilution, overnight 35 °C; read-out: MRSA MICs USA 100.
Text: as §1, §2

Data set [7] concerns MRSA USA 300 (ATCC-BAA-1680). The data set can be described thus: Minimum inhibitory concentration (MIC) assay, MRSA USA 300. It counts as cell-based, meticillin-resistant Staphylococcus aureus. The settings on record: Staphylococcus aureus; microdilution, overnight 35 °C; read-out: MRSA MICs USA 300.
Text: as §1, §2

Data set [8] deals with Adult normal human epidermal keratinocytes (NHEK). The data set can be described thus: Human epidermal keratinocyte viability (GI50) assay. It counts as cell-based. The settings on record: 120 h, 5 days incubation, CellTiter-Glo, read-out: Keratinocyte GI50. On the procedure:
Adult normal human epidermal keratinocytes (NHEK) were purchased from Lonza (catalog #00192627, Basel, Switzerland) and cultured in keratinocyte growth medium (Lonza KGM-Gold Bullet Kit) containing growth supplements (Lonza Reagent Pack) at 5% CO2 (37 °C). The cell viability assay was performed using the CellTiter-Glo Luminescent Cell Viability Assay protocol from Promega (www.promega.com, Fitchburg, WI, USA). Briefly, NHEK were treated with test compounds in keratinocyte growth medium in 96-well plates (Thermo Scientific Nunclon Delta, Waltham, MA, USA). Treated cells were incubated for 5 days at 5% CO2 (37 °C). Promega CellTiter-Glo Reagent was added and plates were shaken on an orbital shaker for […]. Next, well contents (100 μL) from each well were transferred into opaque 96-well plates (PerkinElmer OptiPlate-96) and luminescence measured by a microplate reader (Tecan Safire2).
On the technique in general: In ATP-based viability assays light output follows the ATP content of the culture.

The subject of data set [9] is human carcinoma cell lines. The settings on record: cited from earlier work.

Consider `O=C(Nc1ccc([N+](=O)[O-])cc1Cl)c1cc(Cl)ccc1O` [Niclosamide], for which the “oral LD50” value in data set [1] is greater than 1000 mg/kg. In addition, the MIC in data set [2] is 0.78 µM (≈ 0.255 µg/mL); in [3], 0.39 to 0.78 µM (≈ 0.128 to 0.255 µg/mL); in [4], 0.39 µM (≈ 0.128 µg/mL); in data set [6], 0.78 µM (≈ 0.255 µg/mL); in data set [7], 0.39 µM (≈ 0.128 µg/mL). The “Antibacterial activity in single-point screen” value in data set [5] is recorded as “either bacteriostatic or bactericidal”. Moreover, in data set [8], the GI50 – broadly, the concentration that inhibits growth by half – was less than 200 nM. In data set [9], the “cytotoxic concentrations towards human carcinoma cell lines” value is on record as “sub-micromolar”.
